The text below walks through data of PMC9587031, “Antibiotic polymyxin arranges lipopolysaccharide into crystalline structures to solidify the bacterial membrane” (Nature Communications, 2022).

≈ marks a conversion by molar mass, not a printed value. Positions of bridges follow the written chain, without caps; N, C: chain ends. Non-standard residues stand in square brackets, D forms with d. Residues, ends and D or L forms follow the SMILES beside them. *: point of attachment. Heptanoyl(6-Me) = CC(C)CCCCC(=O)*; Dab = NCC[C@H](N)C(=O)O

One experiment has as its system E. coli MG1655 WT. As to the kind of experiment: MIC, automated multi-well growth assay. It is filed as cell-based, Escherichia coli. As to conditions: for MIC: MG1655, 10 h. As for the experimental part: All titration assays to measure the growth curve of E. coli MG1655 strains at different polymyxin concentrations were performed on a Tecan EVO 200 robotic platform in 96-well plates (cell culture microplates 96 well µClear® CELLSTAR®, Greiner Bio-One GmbH). Plates with serial dilutions of the tested polymyxin derivatives were prepared and overnight cultures of the strains were combined to a final OD600 ≈ 0.05. Titration culture plates were placed in a shaking platform equipped with a Kuhner ES-X shaking module (Adolf Kühner AG) mounted inside an aluminum housing (Tecan) and temperature-controlled using an “Icecube” (Life Imaging Services). Titration cultures were grown for 10 h at 37 °C with shaking at 300 rpm in clear-bottom 96-well plates, which were sealed with peelable foil with small slits (Agilent) to prevent liquid evaporation and guarantee sterility. OD600 measurements were recorded using a Tecan Infinite M200 Pro plater reader.

A further experiment relates to E. coli MG1655 MCR-1. Nature of the experiment: MIC, automated multi-well growth assay. As to conditions: E. coli MG1655 containing the MCR-1 plasmid, growth curves (Fig. 1b). Format: cell-based, Escherichia coli. The text has this: In order to confer colistin resistance to the E. coli K-12 MG1655 strain and derivatives, an mcr-1 gene together with its native promoter region was cloned onto the pBR322 plasmid backbone, creating pAH213_mcr1. Briefly, the mcr-1 gene of colistin-resistant E. coli strain 2 HS-C was identified as gene E4F32_22195 on plasmid p2HS-C-1 (GenBank CP038181.1) and amplified together with ≈ 400 nucleotides of its immediate upstream region using primers prAH2159 and prAH2160. The backbone of pBR322 without its tetracycline resistance cassette was amplified using primers prAH1981 and prAH1982. Using 25 bp overhangs to the backbone included in prAH2159 / prAH2160, insert and backbone were ligated using Gibson assembly. The resulting plasmid pAH213_mcr1 confers colistin resistance to the E. coli K-12 MG1655 strain with a minimal inhibitory concentration of 5 µg/ml (empty vector and vector-free controls: 0.5 µg/ml). Robust growth of the E. coli K-12 MG1655 strains carrying pAH213_mcr1 was observed up to a concentration of 3 µg/ml. […]
All titration assays to measure the growth curve of E. coli MG1655 strains at different polymyxin concentrations were performed on a Tecan EVO 200 robotic platform in 96-well plates (cell culture microplates 96 well µClear® CELLSTAR®, Greiner Bio-One GmbH). […] OD600 measurements were recorded using a Tecan Infinite M200 Pro plater reader.

Experiment [1] has as its system OM patches from E. coli MG1655 WT strain. Nature of the experiment: AFM imaging of crystalline structure formation on OM patches. The arrangement: species or system Escherichia coli. The note with it: DPBS supplemented with 5 mM Mg2+ (MgCl2). The method, then: E. coli MG1655 strains were transformed with the pY200 plasmid that carries an mCherry gene preceded by the periplasmic export signal of the skp protein under control of the lux promoter. This construct enables over-expression of mCherry into the periplasmic space, which in turn increases the OMV production. Cultures were grown in LB medium (Difco) with 50 µg/ml spectinomycin (Fischer Scientific) at 37 °C. Expression of mCherry was induced at an OD600 ≈ 0.4 by N-(β ketocaproyl)-L-homoserine lactone (HSL, Cayman Chemical). After induction, the cultures were grown until they reached the early stationary phase, and bacteria were removed by centrifugation at 10,000 g for 10 min. […]
OMVs produced from different E. coli MG1655 strains were adsorbed onto freshly cleaved mica for 15 min in DPBS buffer at room temperature. […] The images were recorded using two different AFM cantilevers: PEAKFORCE‐HiRs‐F‐A (Bruker) with a nominal spring constant of 0.4 N/m, a resonance frequency of ≈ 165 kHz in liquid, and a sharpened silicon tip with a nominal radius of ≈ 1 nm or SCANASYST-FLUID + (Bruker) with a nominal spring constant of 0.7 N/m, a resonance frequency of ≈ 150 kHz in liquid, and a sharpened silicon tip with a nominal radius of ≈ 2 nm. […] Images were recorded at 2 kHz oscillation frequency, by applying an imaging force of 100–120 pN with a vertical amplitude of 30 nm. […]

The subject of experiment [2] is E. coli K-12 MG1655 carrying pAH213_mcr1. As to the kind of experiment: Colistin MIC, validation of plasmid pAH213_mcr1. It is filed as cell-based, Escherichia coli. From the text: (§1) In order to confer colistin resistance to the E. coli K-12 MG1655 strain and derivatives, an mcr-1 gene together with its native promoter region was cloned onto the pBR322 plasmid backbone, creating pAH213_mcr1. Briefly, the mcr-1 gene of colistin-resistant E. coli strain 2 HS-C was identified as gene E4F32_22195 on plasmid p2HS-C-1 (GenBank CP038181.1) and amplified together with ≈ 400 nucleotides of its immediate upstream region using primers prAH2159 and prAH2160. The backbone of pBR322 without its tetracycline resistance cassette was amplified using primers prAH1981 and prAH1982. Using 25 bp overhangs to the backbone included in prAH2159 / prAH2160, insert and backbone were ligated using Gibson assembly. The resulting plasmid pAH213_mcr1 confers colistin resistance to the E. coli K-12 MG1655 strain with a minimal inhibitory concentration of 5 µg/ml (empty vector and vector-free controls: 0.5 µg/ml). Robust growth of the E. coli K-12 MG1655 strains carrying pAH213_mcr1 was observed up to a concentration of 3 µg/ml. The plasmids were transferred to the cells using the transformation and storage solution (TSS) method.

Experiment [3] concerns E. coli K-12 MG1655 empty vector and vector-free controls. Nature of the experiment: Colistin MIC, validation of plasmid pAH213_mcr1, controls. Format: cell-based, Escherichia coli.
From the text: as §1

For `CC(C)C[C@@H]1NC(=O)[C@@H](CC(C)C)NC(=O)[C@H](CCN)NC(=O)[C@@H](NC(=O)[C@H](CCN)NC(=O)[C@@H](NC(=O)[C@@H](N)CCN)[C@@H](C)O)CCNC(=O)[C@H]([C@@H](C)O)NC(=O)[C@H](CCN)NC(=O)[C@H](CCN)NC1=O` [Polymyxin E intermediate-length] (H-[Dab]T[Dab][Dab][Dab][dL]L[Dab][Dab]T; lactam 4-C), the minimal inhibitory concentration (MIC) against E. coli MG1655 WT was determined as 8 µg/mL (≈ 7.77 µM).

Turning to `CC(C)CCCCC(=O)N[C@@H](CCN)C(=O)N[C@H](C(=O)N[C@@H](CCN)C(=O)N[C@H]1CCNC(=O)[C@@H]([C@H](C)O)NC(=O)[C@H](CCN)NC(=O)[C@H](CCN)NC(=O)[C@H](CC(C)C)NC(=O)[C@@H](CC(C)C)NC(=O)[C@H](CCN)NC1=O)[C@@H](C)O` [Polymyxin E with stereochemistry change] ({Heptanoyl(6-Me)}-[Dab]T[Dab][Dab][Dab][dL]L[Dab][Dab][dT]; lactam 4-C), in the experiment with E. coli MG1655 WT, the MIC stood at 32 µg/mL (≈ 27.7 µM).

On to Polymyxin E, for which the “MIC from bacterial growth curves” value with E. coli MG1655 WT (E. coli K-12 MG1655 WT, growth curves with increasing antibiotic concentration (Fig. 1b)) was in the range of 0.5 to 1 µg/mL. Also, in the experiment with E. coli MG1655 MCR-1, the “polymyxin E concentration in which the strain was able to grow” value was determined as 32 mg/L. The “polymyxin E concentration at which crystalline structures formed” value in experiment [1] came to 1.2 mg/L. Further, the “concentration up to which robust growth was observed” value in experiment [2] (E. coli K-12 MG1655 strains carrying pAH213_mcr1) is at most 3 µg/mL. Moreover, the minimal inhibitory concentration in experiment [2] (E. coli K-12 MG1655 with plasmid pAH213_mcr1) stood at 5 µg/mL; in experiment [3], 0.5 µg/mL.
